From patent US20260001888A1, “PYRAZOLOPYRIMIDINE PDE9 INHIBITORS” (Merck Sharp & Dohme LLC, priority 2018, published 2026)

Each compound was assayed against Human PDE9 (PDE9A2) (Homo sapiens (Human), UniProt O76083) (assay: PDE9 IMAP fluorescence polarization (FP) inhibition assay). Details: apparent inhibition constant; human PDE9A2, FAM-cGMP substrate 50 nM, room temperature.
Format: biochemical
Outline: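 N-terminal GST-tagged full-length PDE9A2 membrane prep (0.5 ng/ml final) preincubated 30 min with compound at room temperature, then 50 nM FAM-cGMP added for 60 min; IMAP binding reagent stops reaction, FP read after 1 h. Controls: known PDE9 inhibitor (100%), 1% DMSO (0%). KI from four-parameter fit.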

Human PDE9 (PDE9A2), sequence (O76083 other isoform, or with tags, fused parts or gaps): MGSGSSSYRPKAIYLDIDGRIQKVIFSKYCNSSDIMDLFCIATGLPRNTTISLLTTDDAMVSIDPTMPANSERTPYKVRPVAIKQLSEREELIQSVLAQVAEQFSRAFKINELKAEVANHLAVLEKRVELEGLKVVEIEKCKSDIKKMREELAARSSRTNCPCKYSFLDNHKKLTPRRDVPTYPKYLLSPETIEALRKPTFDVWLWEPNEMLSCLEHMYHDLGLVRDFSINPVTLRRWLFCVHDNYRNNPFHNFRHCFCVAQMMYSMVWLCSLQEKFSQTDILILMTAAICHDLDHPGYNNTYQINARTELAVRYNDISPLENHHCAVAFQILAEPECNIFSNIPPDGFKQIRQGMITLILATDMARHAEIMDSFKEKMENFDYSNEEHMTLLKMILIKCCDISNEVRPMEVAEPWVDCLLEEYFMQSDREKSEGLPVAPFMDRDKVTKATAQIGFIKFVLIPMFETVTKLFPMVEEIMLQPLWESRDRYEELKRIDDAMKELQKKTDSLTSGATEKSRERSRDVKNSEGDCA

Ki | Structure (SMILES)
7.12 nM | CCC(c1ccc(F)cn1)N(C)c1nc2c(c(C#N)nn2C(C)c2ccc(C(F)(F)F)nc2)c(=O)[nH]1 (single isomer, unassigned) [Example 35, 6-[1-(5-fluoro-2-pyridyl)propyl-methyl-amino]-4-oxo-1-[1-[6-(trifluoromethyl)-3-pyridyl]ethyl]-5H-pyrazolo[3,4-d]pyrimidine-3-carbonitrile]
33.4 nM | CC(Cc1nc2c(c(C#N)nn2C(C)c2ccc(C(F)(F)F)nc2)c(=O)[nH]1)c1ncccn1 (single isomer, unassigned) [Example 86, 4-oxo-6-(2-(pyrimidin-2-yl)propyl)-1-(1-(6-(trifluoromethyl)pyridin-3-yl)ethyl)-4,5-dihydro-1H-pyrazolo[3,4-d]pyrimidine-3-carbonitrile]
22.7 nM | CC(c1ccc(C(F)(F)F)nc1)n1nc(C#N)c2c(=O)[nH]c(N3CCC3c3ccc(F)cc3)nc21 (single isomer, unassigned) [Example 49, 6-[2-(4-fluorophenyl)azetidin-1-yl]-4-oxo-1-[1-[6-(trifluoromethyl)-3-pyridyl]ethyl]-5H-pyrazolo[3,4-d]pyrimidine-3-carbonitrile]
11.1 nM | CCC(c1ncccn1)N(C)c1nc2c(c(C#N)nn2C(C)c2ccc(C(F)(F)F)cc2)c(=O)[nH]1 (single isomer, unassigned) [Example 16, 6-[methyl(1-pyrimidin-2-ylpropyl)amino]-4-oxo-1-[1-[4-(trifluoromethyl)phenyl]ethyl]-5H-pyrazolo[3,4-d]pyrimidine-3-carbonitrile]
